According to the Kinase Knowledgebase extract (Sharma et al. 2016):
pIC50: −log10 of the molar value.

Target: PIK3CA (human) (UniProt P42336)
Experiment: Assessment of PI3KCA Kinase Activity

Chain of PIK3CA (human) (P42336 whole entry, looked up): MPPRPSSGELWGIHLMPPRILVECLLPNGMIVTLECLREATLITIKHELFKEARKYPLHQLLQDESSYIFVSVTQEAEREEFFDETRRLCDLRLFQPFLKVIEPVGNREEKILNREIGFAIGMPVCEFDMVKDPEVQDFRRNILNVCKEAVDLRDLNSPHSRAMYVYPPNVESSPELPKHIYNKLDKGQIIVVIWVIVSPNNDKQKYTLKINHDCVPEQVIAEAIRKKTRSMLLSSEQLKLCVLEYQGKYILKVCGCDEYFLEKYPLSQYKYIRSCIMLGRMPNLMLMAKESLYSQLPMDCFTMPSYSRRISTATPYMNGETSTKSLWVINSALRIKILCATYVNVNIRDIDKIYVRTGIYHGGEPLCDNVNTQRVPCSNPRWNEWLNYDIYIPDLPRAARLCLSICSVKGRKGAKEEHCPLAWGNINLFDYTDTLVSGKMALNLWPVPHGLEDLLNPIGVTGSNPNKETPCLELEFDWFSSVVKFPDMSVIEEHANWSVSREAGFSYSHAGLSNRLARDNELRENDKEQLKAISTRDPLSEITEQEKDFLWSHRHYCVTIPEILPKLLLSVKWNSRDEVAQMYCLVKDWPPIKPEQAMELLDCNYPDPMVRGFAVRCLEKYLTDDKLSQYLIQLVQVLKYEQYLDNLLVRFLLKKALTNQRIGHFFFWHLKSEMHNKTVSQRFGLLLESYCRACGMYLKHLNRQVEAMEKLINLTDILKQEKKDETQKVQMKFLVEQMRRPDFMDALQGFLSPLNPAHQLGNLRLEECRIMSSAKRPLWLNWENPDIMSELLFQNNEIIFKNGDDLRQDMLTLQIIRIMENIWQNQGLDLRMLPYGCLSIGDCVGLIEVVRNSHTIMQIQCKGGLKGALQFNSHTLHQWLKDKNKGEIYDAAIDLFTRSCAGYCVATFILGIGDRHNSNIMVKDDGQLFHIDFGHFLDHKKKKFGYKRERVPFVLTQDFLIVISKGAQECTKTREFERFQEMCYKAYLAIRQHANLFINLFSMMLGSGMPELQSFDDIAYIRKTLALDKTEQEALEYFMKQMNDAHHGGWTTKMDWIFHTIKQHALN

Row | Structure (SMILES) | pIC50
1 | CCOc1nc(-c2ccnc(NC(=O)C3CCCC3)c2)sc1-c1nnc[nH]1 | 6.00 to 7.00
2 | Nc1cc(-c2nc(-c3ccc(Cl)cc3Cl)c(-c3ncc[nH]3)s2)ccn1 | > 7.00
3 | CC(=O)NCCOc1ccn2nc(C)c(-c3nc(-c4ccccc4)c(-c4nc[nH]n4)s3)c2c1 | > 7.00
4 | Cc1nn2ccccc2c1-c1nc(-c2ccccc2C(F)(F)F)c(-c2nnc[nH]2)s1 | > 7.00
5 | CC(=O)Nc1cc(-c2nc(-c3cc(Cl)ccc3Cl)c(-c3ncc[nH]3)s2)ccn1 | > 7.00
6 | O=C1CCc2c(-c3nc(-c4ccc(Cl)cc4Cl)c(-c4ncc[nH]4)s3)ccnc2N1 | > 7.00
7 | N#Cc1c(-c2ccnc(NC(=O)C3CC3)c2)sc(-c2nnc[nH]2)c1-c1ccc(Cl)cc1Cl | > 7.00
8 | Cc1ccc(-c2nc(-c3c(C)nn4ccccc34)sc2-c2nc[nH]n2)o1 | > 7.00
9 | Cc1nn2ccc(OCCNC(=O)C(C)(C)N)cc2c1-c1nc(-c2ccccc2)c(-c2nc[nH]n2)s1 | > 7.00
10 | COc1cccc(Cl)c1-c1nc(-c2c(C)nn3ccccc23)sc1-c1nc[nH]n1 | > 7.00
11 | CC(=O)Nc1cc(-c2nc(-c3ccc(O)cc3)c(-c3ncc[nH]3)s2)ccn1 | 6.00 to 7.00
12 | Cc1nn2ccccc2c1-c1nc(-c2cnn(C)c2C)c(-c2nc[nH]n2)s1 | > 7.00
13 | CC(=O)Nc1cc(-c2nc(-c3ccc4nonc4c3)c(-c3ncc[nH]3)s2)ccn1 | 6.00 to 7.00
14 | Cc1nn2ccsc2c1-c1nc(-c2ccccc2)c(-c2ncc[nH]2)s1 | > 7.00
15 | Cc1nc2ccc(CCN)cn2c1-c1nc(-c2ccccc2)c(-c2nnc[nH]2)s1 | > 7.00
16 | CCOc1cccc(F)c1-c1nc(-c2c(C)nn3ccccc23)sc1-c1nc[nH]n1 | 6.00 to 7.00
17 | Cc1nn2ccccc2c1-c1nc(-c2ccc(F)cc2)c(-c2nnc[nH]2)s1 | > 7.00
18 | CC(=O)Nc1cc(-c2nc(-c3ccccc3)c(-c3nnc[nH]3)s2)ccn1 | > 7.00
19 | Cc1nn2ccccc2c1-c1nc(-c2cc(C=O)ccc2Cl)c(-c2nnc[nH]2)s1 | > 7.00
20 | N#Cc1c(-c2ccnc(Nc3nccs3)c2)sc(-c2ncc[nH]2)c1-c1ccc(Cl)cc1Cl | > 7.00
21 | N#Cc1c(-c2ccnc(NCCO)n2)sc(-c2nnc[nH]2)c1-c1ccc(Cl)cc1Cl | > 7.00
22 | Clc1ccc(-c2cc(-c3ccnc4[nH]ccc34)sc2-c2ncc[nH]2)c(Cl)c1 | > 7.00
23 | N#Cc1c(-c2ccnc(N)c2)sc(C(N)=O)c1-c1ccc(Cl)cc1Cl | > 7.00
24 | CC(=O)Nc1cc(-c2nc(-c3ccccc3C(F)(F)F)c(-c3nnc[nH]3)s2)ccn1 | 6.00 to 7.00
25 | CCNc1nccc(-c2sc(-c3nnc[nH]3)c(-c3ccc(Cl)cc3Cl)c2C#N)n1 | > 7.00
26 | CC(=O)Nc1cc(-c2nc(-c3ccc(N(C)C)nc3)c(-c3ncc[nH]3)s2)ccn1 | 6.00 to 7.00

Row | Structure (SMILES) | pIC50
27 | Cc1nn2ccc(OCc3ccc(C(F)(F)F)nc3)cc2c1-c1nc(-c2ccccc2)c(-c2nc[nH]n2)s1 | > 7.00
28 | CC(=O)Nc1cc(-c2nc(-c3ccccc3C)c(-c3ncc[nH]3)s2)ccn1 | > 7.00
29 | N#Cc1c(-c2ccnc(F)c2)sc(-c2nnc[nH]2)c1-c1ccc(Cl)cc1Cl | 6.00 to 7.00
30 | COC[C@@H]1CCCN1CCC(=O)Nc1cc(-c2nc(-c3ccccc3)c(-c3nnc[nH]3)s2)ccn1 | 6.00 to 7.00
31 | CC(=O)Nc1cc(-c2nc(-c3cccc4cnccc34)c(-c3ncc[nH]3)s2)ccn1 | 6.00 to 7.00
32 | CC(=O)Nc1cc(-c2sc(-c3nccn3Cc3ccc(F)cc3)c(-c3ccc(Cl)cc3Cl)c2C#N)ccn1 | 6.00 to 7.00
33 | N#Cc1c(-c2ccnc(NS(N)(=O)=O)c2)sc(-c2nnc[nH]2)c1-c1ccc(Cl)cc1Cl | 6.00 to 7.00
34 | c1ccc(-c2nc(-c3ccnc4[nH]ccc34)sc2-c2nnc[nH]2)cc1 | > 7.00
35 | COC(=O)Nc1cc(-c2sc(-c3nnc[nH]3)c(-c3ccc(Cl)cc3Cl)c2C#N)ccn1 | > 7.00
36 | CC(=O)Nc1cc(-c2nc(-c3ccc(C(=O)N4CCNCC4)cc3)c(-c3ncc[nH]3)s2)ccn1 | 6.00 to 7.00
37 | CNC(=O)Nc1cc(-c2sc(-c3ncc[nH]3)c(-c3ccc(Cl)cc3Cl)c2C#N)ccn1 | > 7.00
38 | Cc1nn2ccc(-c3cnn(C)c3)cc2c1-c1nc(-c2ccccc2)c(-c2nc[nH]n2)s1 | > 7.00
39 | COC(=O)Nc1cc(-c2sc(-c3ncc[nH]3)c(-c3ccc(Cl)cc3Cl)c2C#N)ccn1 | > 7.00
40 | CC(=O)Nc1nc2c(-c3cc(-c4ccc(Cl)cc4Cl)c(-c4ncc[nH]4)s3)ncnc2s1 | 6.00 to 7.00
41 | CNC(=O)Nc1cc(-c2sc(-c3nnc[nH]3)c(-c3ccc(Cl)cc3Cl)c2C#N)ccn1 | > 7.00
42 | Cc1nn2ccccc2c1-c1nc(-c2ccc(N3CCNCC3)nc2)c(-c2nc[nH]n2)s1 | 6.00 to 7.00
43 | Nc1nc2c(-c3cc(-c4ccc(Cl)cc4Cl)c(-c4ncc[nH]4)s3)ncnc2s1 | > 7.00
44 | COc1ccc(-c2nc(-c3ccnc(NC(C)=O)c3)sc2-c2ncc[nH]2)c(Cl)c1 | > 7.00
45 | Cc1nn2ccccc2c1-c1nc(-c2ccsc2)c(-c2nnc[nH]2)s1 | > 7.00
46 | Cc1ccc(-c2nc(-c3c(C)nn4ccccc34)sc2-c2nc[nH]n2)s1 | > 7.00
47 | C=CCOc1nc(-c2c(C)nn3ccccc23)sc1-c1nnc[nH]1 | > 7.00
48 | CC(=O)N1CCN(Cc2ccc3nc(C)c(-c4nc(-c5ccccc5)c(-c5nc[nH]n5)s4)n3c2)CC1 | > 7.00
49 | CC(=O)N1CCC(Oc2ccn3nc(C)c(-c4nc(-c5ccccc5)c(-c5nc[nH]n5)s4)c3c2)CC1 | > 7.00
50 | c1ccc(-c2nc(-c3ccnc4ccsc34)sc2-c2nnc[nH]2)cc1 | > 7.00
51 | Cc1nc2ccc(CN3CCNCC3)cn2c1-c1nc(-c2ccccc2)c(-c2nnc[nH]2)s1 | > 7.00
52 | CC(=O)Nc1cc(-c2sc(-c3nccn3Cc3cccnc3)c(-c3ccc(Cl)cc3Cl)c2C#N)ccn1 | 6.00 to 7.00

More lines, now with the values ahead:

Row | pIC50 | Structure (SMILES)
53 | > 7.00 | CNc1cc(-c2sc(-c3nnc[nH]3)c(-c3ccc(Cl)cc3Cl)c2C#N)ccn1
54 | > 7.00 | CC(=O)Nc1cc(-c2nc(-c3ccc(F)cc3F)c(-c3ncc[nH]3)s2)ccn1
55 | 6.00 to 7.00 | CC(=O)Nc1cc(-c2nc(-c3cccc(Cl)c3)c(-c3ncc[nH]3)s2)ccn1
56 | > 7.00 | CC(=O)Nc1cc(-c2cc(-c3ccc(Cl)cc3Cl)c(-c3ncc[nH]3)s2)ccn1
57 | > 7.00 | Cc1nn2ccc(OCCN3CCC(F)(F)CC3)cc2c1-c1nc(-c2ccccc2)c(-c2nc[nH]n2)s1
58 | > 7.00 | CC(=O)Nc1cc(-c2nc(-c3ccc4c(c3)OCO4)c(-c3ncc[nH]3)s2)ccn1
59 | > 7.00 | Cc1nn2ccccc2c1-c1nc(-c2ccccc2N)c(-c2nc[nH]n2)s1
60 | > 7.00 | CNc1cc(-c2sc(-c3ncc[nH]3)c(-c3ccc(Cl)cc3Cl)c2C#N)ccn1
61 | 6.00 to 7.00 | Cc1nn2ccccc2c1-c1nc(-c2ccc(CN)cc2)c(-c2nc[nH]n2)s1
62 | 6.00 to 7.00 | Cc1nn2ccsc2c1-c1nc(-c2ccccc2)c(-c2nnn[nH]2)s1
63 | > 7.00 | Cc1nn2ccc(OCCN3CCOCC3)cc2c1-c1nc(-c2ccccc2F)c(-c2nc[nH]n2)s1
64 | > 7.00 | CC(=O)Nc1cc(-c2nc(-c3ccc(Cl)cc3Cl)c(-c3ncc[nH]3)s2)ncn1
65 | > 7.00 | O=C1CCc2c(-c3cc(-c4ccc(Cl)cc4Cl)c(-c4ncc[nH]4)s3)ccnc2N1
66 | > 7.00 | O=C(Nc1cc(-c2nc(-c3ccccc3)c(-c3nnc[nH]3)s2)ccn1)C1CC1
67 | > 7.00 | COC(=O)Nc1cc(-c2nc(-c3ccc(Cl)cc3Cl)c(-c3ncc[nH]3)s2)ccn1
68 | > 7.00 | Cc1nc2ccc(CNCCN)cn2c1-c1nc(-c2ccccc2)c(-c2nnc[nH]2)s1
69 | > 7.00 | Cc1nn2ccc(OCCN3CCN(C)C(=O)C3)cc2c1-c1nc(-c2ccccc2)c(-c2nc[nH]n2)s1
70 | 6.00 to 7.00 | CCOc1nc(-c2ccnc(NC(=O)c3ccc(N(C)C)cc3)c2)sc1-c1nnc[nH]1
71 | 6.00 to 7.00 | Cc1nn2ccccc2c1-c1nc(-c2ccccc2OCc2ccccc2)c(-c2nc[nH]n2)s1
72 | 6.00 to 7.00 | Cc1nc2ccc(Br)cn2c1-c1nc(-c2ccccc2)c(-c2nc[nH]n2)s1
73 | 6.00 to 7.00 | COC(=O)c1cccc(-c2nc(-c3c(C)nn4ccccc34)sc2-c2nc[nH]n2)c1
74 | 6.00 to 7.00 | CNc1cc(-c2sc(-c3nccn3C)c(-c3ccc(Cl)cc3Cl)c2C#N)ccn1

Row | pIC50 | Structure (SMILES)
75 | > 7.00 | COCCNc1nccc(-c2sc(-c3nnc[nH]3)c(-c3ccc(Cl)cc3Cl)c2C#N)n1
76 | > 7.00 | O=C(Nc1cc(-c2cc(-c3ccc(Cl)cc3Cl)c(-c3ncc[nH]3)s2)ccn1)C1CC1
77 | 6.00 to 7.00 | CC(=O)Nc1cc(-c2nc(-c3ccsc3)c(-c3ncc[nH]3)s2)ccn1
78 | > 7.00 | CC(=O)Nc1cc(-c2nc(-c3cc(CO)ccc3Cl)c(-c3ncc[nH]3)s2)ccn1
79 | > 7.00 | Cc1nn(C)c(C)c1-c1nc(-c2c(C)nn3ccccc23)sc1-c1nc[nH]n1
80 | 6.00 to 7.00 | Cc1nn2ccccc2c1-c1nc(-c2cccc(C(F)(F)F)c2)c(-c2nc[nH]n2)s1
81 | > 7.00 | Cc1nnc(-c2sc(-c3c(C)nn4ccsc34)nc2-c2ccccc2)[nH]1
82 | 6.00 to 7.00 | CC(=O)Nc1cc(-c2nc(-c3ccc(Cl)cc3Cl)c(-c3nc(C#N)c[nH]3)s2)ccn1
83 | 6.00 to 7.00 | CC(=O)Nc1cc(-c2nc(-c3cccc(OC(F)(F)F)c3)c(-c3ncc[nH]3)s2)ccn1
84 | > 7.00 | CCC(=O)Nc1cc(-c2sc(-c3nnc[nH]3)c(-c3ccc(Cl)cc3Cl)c2C#N)ccn1
85 | 6.00 to 7.00 | CC(=O)Nc1cc(-c2nc(-c3ccc(Cl)cc3)c(-c3ncc[nH]3)s2)ccn1
86 | > 7.00 | N#Cc1c(-c2ccnc(N)n2)sc(C(N)=O)c1-c1ccc(Cl)cc1Cl
87 | 6.00 to 7.00 | CC(=O)Nc1cc(-c2nc(-c3ccc(Cl)cc3Cl)c(-c3ncc[nH]3)s2)c(C)cn1
88 | > 7.00 | C/C=C/c1nc(-c2c(C)nn3ccccc23)sc1-c1nnc[nH]1
89 | > 7.00 | Cc1nn2ccc(N3CCOCC3)cc2c1-c1nc(-c2ccccc2)c(-c2nc[nH]n2)s1
90 | > 7.00 | Cc1nn2ccccc2c1-c1nc(-c2cccc(F)c2)c(-c2nnc[nH]2)s1
91 | > 7.00 | Cc1nn2ccc(OCc3ccccc3)cc2c1-c1nc(-c2ccccc2)c(-c2nnc[nH]2)s1
92 | > 7.00 | C=Cc1ccc2nc(C)c(-c3nc(-c4ccccc4)c(-c4nc[nH]n4)s3)n2c1
93 | > 7.00 | COC[C@H]1CCCN1CCC(=O)Nc1cc(-c2nc(-c3ccccc3)c(-c3nnc[nH]3)s2)ccn1
94 | 6.00 to 7.00 | COC(=O)c1cnc(-c2sc(-c3ccnc(NC(C)=O)c3)c(C#N)c2-c2ccc(Cl)cc2Cl)[nH]1
95 | > 7.00 | CC(=O)Nc1cc(-c2nc(-c3ccc(C)cc3)c(-c3ncc[nH]3)s2)ccn1
96 | > 7.00 | CCOc1nc(-c2c(C)nn3ccccc23)sc1-c1nnc[nH]1
